Among the data in ChEMBL document CHEMBL1157539, “Thousands of chemical starting points for antimalarial lead identification” (Nature, 2010) are XC50 values, retold here.

The structures appear in SMILES notation.

This test relates to Plasmodium falciparum. As to the kind of experiment: GSK_TCMDC: Inhibition of Plasmodium falciparum 3D7 in whole erythrocytes, using parasite LDH activity as an index of growth. Format: functional, organism-based. As to conditions: Plasmodium falciparum, 3D7.
`COc1ccc2nc3cc(Cl)ccc3c(NCCCCN)c2c1` showed an XC50 of 732 nM.

For `COc1cccc(Nc2nc(NCCO)c3ccccc3n2)c1`, the XC50 was found to be 151 nM.

In turn, `Clc1ccc(-c2nc(-c3ccncc3)c[nH]2)cc1Cl` returned an XC50 of 1060 nM.

The compound `CCc1c(C)c2ccc3c(c2oc1=O)CN(CCc1ccc(F)cc1)CO3` returned an XC50 of 1230 nM.

`CCCC1N=C(N)N=C(N)N1c1ccc(Cl)cc1` (stereo unspecified) had an XC50 of 46.7 nM.

`CCOC(=O)CCCCCNC[C@H](O)c1ccccc1`: the XC50 is 328 nM.

Compound `CC(=O)c1ccc(NC(=O)NNC(=O)c2ccc(CCN3CCC(c4nc(COCC(F)(F)F)c(-c5ccc(F)cc5)o4)CC3)cc2)cc1` had an XC50 of 835 nM.

As to `CCCNCc1ccc(-c2ccc(CN(CC3CCCO3)C(=O)C3CC(=O)c4ccccc43)cc2)nc1` (stereo unspecified), the XC50 was 860 nM.

`COc1ccc(NC(=O)CCNc2cc(C)nc(NCc3cccc(C)c3)n2)cc1` yielded an XC50 of 1090 nM.

On to `CC[C@H]1CN2CC[C@H]1C[C@H]2[C@H](O)c1ccnc2ccc(C#N)cc12`, for which the XC50 came out at 147 nM.

The compound `CCN(CCCN1CCCCC1)c1cc(C)nc(Nc2ccc(Cl)cc2C)n1` gave an XC50 of 729 nM.

In turn, `CC(C)(C)CC(C)(C)c1ccc(O)c(C(=O)Nc2ccc([N+](=O)[O-])cc2)c1` gave an XC50 of 774 nM.

In the case of `COc1ccc(-c2ccc(NC(=O)c3cccc(Cl)c3)c(F)c2)cc1CN1CCCN(C)CC1`, the XC50 was 679 nM.

`Cc1sc2nc(CSc3ccccc3)nc(N3CCN(CC(=O)N4CCCC4)CC3)c2c1C` registered an XC50 of 1260 nM.

Take `COc1cccc(CN2CCCN(Cc3cccc(NC(=O)c4ccc(-c5ccccc5)cc4)c3)CC2)c1`: the XC50 was found to be 244 nM.

With `CN1CCN(c2ncnc3ccc(NC(=O)Nc4ccc(Cl)c(Cl)c4)cc23)CC1`, the XC50 came out at 264 nM.

`CCNc1cc(C(=O)N[C@@H](Cc2ccccc2)[C@H](O)CNC(C)(C)CCCC(C)C)cc(N2CCCCS2(=O)=O)c1` returned an XC50 of 446 nM.

The compound `Cc1ccc(S(=O)(=O)n2cc(-c3ccnc(N)c3)c3cc(Br)cnc32)cc1` returned an XC50 of 896 nM.

For `c1ccc(C2CCC(N3CCC(N4CCN(c5ccccc5)CC4)CC3)CC2)cc1` (stereo unspecified), the XC50 is 764 nM.

`CS(=O)(=O)CCNCc1cccc(-c2cc3nccc(Nc4ccc(Oc5ccccc5)cc4)c3cc2Cl)c1` had an XC50 of 625 nM.

The compound `Cc1ccc2[nH]c(C)cc(=NN=Cc3ccccc3F)c2c1` returned an XC50 of 171 nM.

`O=C(/C=C/c1ccc(Cl)c(Cl)c1)NCCCCCN1CCCN(C(=O)Nc2ccc(OC(F)F)cc2)CC1` came in with an XC50 of 833 nM.

Compound `COc1ccc(Nc2nccc(N3CCC(NS(=O)(=O)c4ccc(NC(C)=O)cc4)C3)n2)cc1` (stereo unspecified) showed an XC50 of 795 nM.

The compound `O=C(NC1CCCCC1)N(Cc1ccc(-c2cccc(CNC3CCCC3)c2)cc1)C1CCN(Cc2ccccc2)CC1` came in with an XC50 of 785 nM.

For `CCCCCCOc1ccc(C(=O)NCCCC2CCCN(CCCCCNC(=O)C=Cc3ccc(Cl)c(Cl)c3)C2)cc1` (stereo unspecified), the XC50 was found to be 703 nM.

Compound `COc1ccc2c(NN=Cc3ccc(F)cc3)ccnc2c1` registered an XC50 of 438 nM.

`CCCCn1c(Sc2ccc(C#N)c([N+](=O)[O-])c2)nnc1-c1cc(OC)cc(OC)c1` yielded an XC50 of 824 nM.

`Cc1cnn(-c2cccc(C(=O)NC3CCC(CCN4CCc5ccc(C#N)cc5CC4)CC3)c2)c1` (stereo unspecified): the XC50 is 932 nM.

`CCS(=O)(=O)N1CCN(c2nc(-c3ccccc3)nc(COC)c2Cc2ccccc2F)CC1` yielded an XC50 of 1450 nM.

`CCNc1cc(C(=O)N[C@@H](Cc2ccccc2)[C@H](O)CNC(CC)c2cccc(Cl)c2)cc(N2CCCC2=O)c1` (stereo partly specified) gave an XC50 of 31.6 nM.

Consider `COc1ccccc1NC(=O)Nc1ccc(-c2ccc(-c3nc4cccc(C)c4[nH]3)s2)cc1`, for which the XC50 is 158 nM.

The compound `CC(=O)Nc1ccc(CN2CCCN(c3cc(NC(=O)c4cccc(C)c4)ccn3)CC2)cc1` gave an XC50 of 863 nM.

For `CCc1cn(CCOC)c2ccc(C(=O)N[C@@H](Cc3ccccc3)[C@H](O)CNC(C)(C)CCCC(C)C)cc12`, the XC50 worked out at 569 nM.

As to `O=S(=O)(Nc1cc2c(cc1O)CCNCC2)c1ccc(-c2ccc(Cl)cc2)cc1`, the XC50 is 980 nM.

For the compound `O=C(/C=C/c1ccc(Cl)c(Cl)c1)NCCCCCCN1CCN(C(=O)Nc2ccc(Cl)c(C(F)(F)F)c2)CC1`, the XC50 is 526 nM.

For `N=C(N)Nc1ccc(NC(=O)Nc2ccc(NC(=N)N)cc2)cc1`, the XC50 amounted to 386 nM.

In turn, `Cc1[nH]c(C)c(-c2ccc(OCc3ccc(OC(F)(F)F)cc3)nc2)c(=O)c1Br` returned an XC50 of 140 nM.

`Cn1nc(C(F)(F)F)c(-c2ccc(Br)cc2)c1NC(=O)Nc1ccc(F)cc1F` came in with an XC50 of 793 nM.

On to `Cc1noc(C)c1-c1ccc2c(Nc3cccc4c3-c3ccccc3C4=O)c(C(=O)NCc3ccccc3I)cnc2c1`, for which the XC50 came out at 627 nM.

`O=C(NCc1cccc(F)c1)Nc1cccc(-c2ccc(-c3nc4cc(F)ccc4[nH]3)cc2)c1` showed an XC50 of 1050 nM.

With `COc1ccc(CN(C)CCCc2ccc(NC(=O)c3cc4ccccc4[nH]3)cc2)cc1OC`, the XC50 is 725 nM.

Turning to `Cc1cc(NC(=O)NCCN2CCC(NS(=O)(=O)c3cccc(Br)c3)C2)c2ccccc2n1` (stereo unspecified), the XC50 was found to be 606 nM.

For `COc1ccc2nccc(N3CCC(NCCNCc4cc5c(cn4)OCCO5)C3)c2n1` (stereo unspecified), the XC50 was 578 nM.

The compound `CCn1ccc2c(N3CCCS3(=O)=O)cc(C(=O)N[C@@H](Cc3ccccc3)[C@H](O)CNC(C)(C)CCCC(C)C)cc21` came in with an XC50 of 491 nM.

As for `Fc1ccc(NC(=S)NCCc2ccccc2)cc1`, the XC50 came out at 781 nM.

`Cc1nc(N)nc(N)c1-c1ccc(Br)c([N+](=O)[O-])c1` registered an XC50 of 201 nM.

Consider `O=C(CCCCCc1ccccc1)NC1CCC(CN2CCC(c3c[nH]c4ccccc34)CC2)CC1` (stereo unspecified), for which the XC50 came to 1140 nM.

The compound `C=C[C@H]1CN2CC[C@@H]1C[C@H]2[C@H](O)c1cc(-c2ccc(F)cc2)nc2ccc(OC)cc12` yielded an XC50 of 169 nM.

Consider `COc1ccc2nccc([C@@H](O)CN3CCC(NC(=O)C(c4cc5ccccc5o4)N4CCN(c5ccccc5)CC4)CC3)c2c1` (stereo partly specified), for which the XC50 stood at 238 nM.

The compound `COc1cc2nc(N3CC(C)N(C(=O)Cc4ccc(-c5ccccc5)cc4)C(C)C3)nc(N)c2cc1OC` (stereo unspecified) came in with an XC50 of 796 nM.

For `O=C(CSc1nnc(O)n1Cc1ccccc1)Nc1ccccc1-c1ccccc1`, the XC50 was determined as 953 nM.

In turn, `CON(CCCN(C)C)C(=N)N` had an XC50 of 1080 nM.

Turning to `CN(c1ccc2c(c1)nc(Nc1cc(C(C)(C)C)on1)n2C)c1ccnc(Nc2ccc(CS(C)(=O)=O)cc2)n1`, the XC50 amounted to 900 nM.

With `CN(C)CCCOC(=O)c1cc2cc(-c3ccccc3)ccc2n1S(=O)(=O)Cc1ccccc1`, the XC50 was determined as 361 nM.

`O=C1COc2ccc3ccccc3c21` gave an XC50 of 701 nM.

On to `CCS[C@@H]1O[C@H](COC(=O)c2ccccc2)[C@H](OC(=O)c2ccccc2)[C@H](OC(=O)c2ccccc2)[C@H]1OC(=O)c1ccccc1`, for which the XC50 was found to be 808 nM.

For `COc1ccc2nccc([C@@H](O)CN3CCC(NC(=O)/C(=C/c4ccccc4)c4ccc(-c5ccccc5)cc4)CC3)c2c1`, the XC50 came out at 1050 nM.

For `O=C(Nc1ccc(F)cc1F)NC1CCN(c2ccnc3cc(Cl)ccc23)C1` (stereo unspecified), the XC50 came out at 245 nM.

In the case of `Cc1cccc2nc(-c3ccc(-c4ccc(NC(=O)C5CCN(C)CC5)cc4)cc3)[nH]c12`, the XC50 worked out at 748 nM.

`NC1=NC2(CCCC2)C(c2ccc(Cl)c(Cl)c2)C(N)=N1` (stereo unspecified) showed an XC50 of 987 nM.

As to `Cc1ccc(Cn2c(N3CCC(C(=O)NCc4cccs4)CC3)nc3ccccc32)cc1`, the XC50 was 748 nM.
